For assay [1], the target named is T1, hKv1.5 current (IKur, KCN5A) (Homo sapiens, UniProt P22460).
T1 construct: expressed in transfected cells
Kind of assay: Whole-cell patch clamp of hKv1.5 current in HEK 293 cells. The class given is cell-based. To be noted: 30 μM, at +50 mV, n = 5. The procedure:
(§1) Whole-cell currents of hKv1.5 and hKv4.3 were recorded in established HEK 293 cell lines stably expressing hKv1.5 (KCN5A) and hKv4.3 (KCND3) and IKACh was determined in isolated rat atrial myocytes as described previously[12][31][32] and in Supplemental Materials. […]
Effects of acacetin prodrug on cardiac potassium currents
Whole-cell currents of hKv1.5 and hKv4.3 were recorded in established HEK 293 cell lines stably expressing hKv1.5 (KCN5A) and hKv4.3 (KCND3).1, 2 The cells were cultured in Dulbecco’s modified eagle’s medium (DMEM, Invitrogen, Hong Kong) supplemented with 10% fetal bovine serum and 400 µg/mL G418. Cells on a coverslip were transferred to an open cell chamber (0.5 ml) mounted on the stage of an inverted microscope and superfused with Tyrode’s solution at 2 mL/min. The whole cell patch-clamp technique was used as described previously.1, 2 The whole-cell membrane currents were measured using an EPC-10 amplifier and Pulse software (Heka Elektronik, Lambrecht, Germany). Borosilicate glass electrodes (1.2-mm OD) were pulled with a Brown/Flaming puller (model P-97, Sutter Instrument, Nato, CA) and had resistances of 1.5~2.5 MΩ when filled with the pipette solution. A 3-M KCl agar bridge was used as the reference electrode. The tip potential was zeroed before the patch pipette contacted the cell. […]
For orientation: In patch-clamp work, channel activity is measured electrically.

Assay [2] has as its target T2, IKACh (acetylcholine-activated K+ current) (Rattus norvegicus, UniProt P48548+P63251).
T2 construct: endogenous in cells; host or cells: atrial myocytes dissociated from male Sprague-Dawley rats
T2 sequence (P63251 1-501): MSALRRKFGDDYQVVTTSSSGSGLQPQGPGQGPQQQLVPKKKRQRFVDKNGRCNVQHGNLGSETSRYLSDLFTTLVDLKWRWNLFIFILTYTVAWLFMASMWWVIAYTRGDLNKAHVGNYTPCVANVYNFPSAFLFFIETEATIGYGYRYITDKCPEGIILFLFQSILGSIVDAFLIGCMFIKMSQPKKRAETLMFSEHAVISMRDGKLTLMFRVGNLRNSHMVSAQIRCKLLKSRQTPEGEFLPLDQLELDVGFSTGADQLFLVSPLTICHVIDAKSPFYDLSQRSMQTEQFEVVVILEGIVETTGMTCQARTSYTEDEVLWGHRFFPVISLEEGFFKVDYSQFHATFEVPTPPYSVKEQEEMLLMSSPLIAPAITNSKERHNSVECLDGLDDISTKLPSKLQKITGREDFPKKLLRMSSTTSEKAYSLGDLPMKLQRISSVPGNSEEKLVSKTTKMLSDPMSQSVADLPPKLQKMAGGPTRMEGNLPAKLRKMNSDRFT
T2 sequence (P48548 1-419): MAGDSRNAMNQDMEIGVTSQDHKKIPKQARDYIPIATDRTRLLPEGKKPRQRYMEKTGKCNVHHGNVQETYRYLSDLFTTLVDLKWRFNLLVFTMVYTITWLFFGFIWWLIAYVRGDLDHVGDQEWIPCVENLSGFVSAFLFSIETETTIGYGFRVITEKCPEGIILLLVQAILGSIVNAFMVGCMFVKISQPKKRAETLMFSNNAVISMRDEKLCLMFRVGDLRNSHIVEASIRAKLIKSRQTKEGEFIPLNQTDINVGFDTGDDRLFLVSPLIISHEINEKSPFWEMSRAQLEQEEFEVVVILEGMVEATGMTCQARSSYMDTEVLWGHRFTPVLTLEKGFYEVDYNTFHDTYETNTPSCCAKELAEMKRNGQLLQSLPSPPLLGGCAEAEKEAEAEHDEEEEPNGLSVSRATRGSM
Kind of assay: Whole-cell IKACh elicited by 5 μM carbachol in rat atrial myocytes. The class given is cell-based. To be noted: 30 μM, at −100 mV, n = 5. Here is the method: as §1
Effects of acacetin prodrug on cardiac potassium currents […]
Cells on a coverslip were transferred to an open cell chamber (0.5 ml) mounted on the stage of an inverted microscope and superfused with Tyrode’s solution at 2 mL/min. The whole cell patch-clamp technique was used as described previously.1, 2 The whole-cell membrane currents were measured using an EPC-10 amplifier and Pulse software (Heka Elektronik, Lambrecht, Germany). Borosilicate glass electrodes (1.2-mm OD) were pulled with a Brown/Flaming puller (model P-97, Sutter Instrument, Nato, CA) and had resistances of 1.5~2.5 MΩ when filled with the pipette solution. A 3-M KCl agar bridge was used as the reference electrode. The tip potential was zeroed before the patch pipette contacted the cell. After a giga-Ohm seal was obtained, the cell membrane was ruptured by applying gentle pressure to establish a whole-cell configuration. […] The liquid junction potential (14.7 mV) calculated with the software Clampex was not corrected in the experiment and data […]
Whole-cell current of IKACh was determined in isolated rat atrial myocytes. […]

The structures appear in SMILES notation.

T1 sequence (P22460 whole entry): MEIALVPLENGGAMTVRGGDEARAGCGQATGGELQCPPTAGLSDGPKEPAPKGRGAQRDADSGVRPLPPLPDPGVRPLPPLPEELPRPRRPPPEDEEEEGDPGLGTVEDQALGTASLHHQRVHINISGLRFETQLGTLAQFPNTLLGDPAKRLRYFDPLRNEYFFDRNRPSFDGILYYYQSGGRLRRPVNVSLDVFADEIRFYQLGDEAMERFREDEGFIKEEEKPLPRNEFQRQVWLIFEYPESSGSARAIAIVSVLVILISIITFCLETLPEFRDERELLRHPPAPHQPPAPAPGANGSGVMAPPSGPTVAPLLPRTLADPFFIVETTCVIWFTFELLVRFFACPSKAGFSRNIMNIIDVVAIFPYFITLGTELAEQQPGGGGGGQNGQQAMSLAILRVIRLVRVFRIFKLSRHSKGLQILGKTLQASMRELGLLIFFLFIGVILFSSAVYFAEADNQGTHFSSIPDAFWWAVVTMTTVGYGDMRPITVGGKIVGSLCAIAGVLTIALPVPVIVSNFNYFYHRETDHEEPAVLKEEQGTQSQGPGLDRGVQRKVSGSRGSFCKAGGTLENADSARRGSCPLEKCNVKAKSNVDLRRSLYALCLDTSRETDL

Turning to `COc1ccc(-c2cc(=O)c3c(O)cc(OP(=O)([O-])[O-])cc3o2)cc1.[Na+].[Na+]` [acacetin prodrug, phosphate sodium salt of acacetin], the “inhibition of hKv1.5 current” value in assay [1] was “no significant inhibition”. The “inhibition of IK.ACh” value in assay [2] was “no significant inhibition”.

The record behind these values is paper PMC4861903, “Synthesis of a highly water-soluble acacetin prodrug for treating experimental atrial fibrillation in beagle dogs” (Scientific Reports, 2016).
